In paper PMC8707461, “In Vitro and In Vivo Inhibition of MATE1 by Tyrosine Kinase Inhibitors” (Pharmaceutics, 2021):

Experiments:
MATE1 [1] = target: T1, MATE1 (Homo sapiens, UniProt Q96FL8); assay: [14C]TEA uptake in HEK293 cells overexpressing human MATE1; details: human
T1 sequence (Q96FL8 1-570): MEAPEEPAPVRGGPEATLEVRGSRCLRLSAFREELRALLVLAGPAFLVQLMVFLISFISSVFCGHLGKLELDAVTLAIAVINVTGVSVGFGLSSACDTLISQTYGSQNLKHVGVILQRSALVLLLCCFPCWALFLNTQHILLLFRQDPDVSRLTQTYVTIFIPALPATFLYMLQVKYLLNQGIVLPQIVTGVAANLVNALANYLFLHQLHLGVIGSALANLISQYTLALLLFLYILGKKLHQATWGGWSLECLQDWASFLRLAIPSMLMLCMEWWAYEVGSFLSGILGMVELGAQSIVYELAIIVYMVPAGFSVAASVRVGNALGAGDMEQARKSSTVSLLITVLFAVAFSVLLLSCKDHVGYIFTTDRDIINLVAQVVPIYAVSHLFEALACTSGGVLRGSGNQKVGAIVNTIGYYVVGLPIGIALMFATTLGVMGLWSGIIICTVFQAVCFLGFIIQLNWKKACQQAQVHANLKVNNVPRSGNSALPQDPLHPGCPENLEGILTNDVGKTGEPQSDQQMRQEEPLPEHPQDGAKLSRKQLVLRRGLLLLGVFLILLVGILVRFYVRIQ
Method: Uptake experiments in HEK293 cells overexpressing mouse (m) and human (h) OCT2 or MATE1 were performed with radiolabeled tetraethylammonium (TEA) as the model substrate, using standard methods in the presence or absence of TKIs. The cell culture and uptake conditions for cells expressing mMATE1 or hMATE1 were described previously. […] Since the inhibitory potential of various xenobiotics against OCT2 and MATE1 is dependent on preincubation with perpetrator drugs, a 15-min preincubation period with the TKIs was employed unless stated otherwise. All results were normalized to uptake values in cells transfected with an empty vector or DMSO-treated groups.
MATE1-overexpressed cells were pre-incubated with transport media containing 30 mM ammonium chloride for 20 min at 37 °C following previously published protocol (pH 7.4 for hMATE1 [17, 18, 19] and pH 8.4 for mMATE1 [20, 21]) to ensure interactions can be evaluated between outward-facing MATE1 and substrate uptake before adding inhibitors. Then, preincubation media was removed and cells were incubated with transport media (NH4Cl free) containing radiolabeled compounds. […] The uptake of TEA and metformin was measured by liquid scintillation counting, as described previously. For uptake studies involving platinum drugs, cells were collected with TrypLE, and the pellets were lysed overnight in 0.2% nitric acid. After sonication, total platinum levels were determined by flameless atomic absorption spectrometry.

MATE1 [2] = details: publicly available information; ref FDA/EMA or supplement refs 1-8; cited from earlier work
[3] = HEK293 cells overexpressing human MATE1, pH 7.4, probe [14C]TEA (tetraethylammonium), 2 µM

Row | SMILES | inhibition at 10 µM (MATE1 [1]; [3]) [%] | IC50 (MATE1 [2]) [µM] | inhibition at 10 µM (MATE1 [1]; pH 7.4) [%]
1 | CC#CC(=O)N1CCC[C@H]1c1nc(-c2ccc(C(=O)Nc3ccccn3)cc2)c2c(N)nccn12 [Acalabrutinib] | 43.3 | – | –
2 | CNC(=O)c1ccccc1Sc1ccc2c(/C=C/c3ccccn3)n[nH]c2c1 [Axitinib] | 60.8 | – | –
3 | CCS(=O)(=O)N1CC(CC#N)(n2cc(-c3ncnc4[nH]ccc34)cn2)C1 [Baricitinib] | 55.5 | – | –
4 | Cn1cnc2c(F)c(Nc3ccc(Br)cc3F)c(C(=O)NOCCO)cc21 [Binimetinib] | 47.6 | > 50 | –
5 | COc1cc(N2CCC(N3CCN(C)CC3)CC2)ccc1Nc1ncc(Cl)c(Nc2ccccc2P(C)(C)=O)n1 [Brigatinib] | – | – | 95.9
6 | COc1cc2nccc(Oc3ccc(NC(=O)C4(C(=O)Nc5ccc(F)cc5)CC4)cc3)c2cc1OC [Cabozantinib] | 95.8 | < 10 | –
7 | CNC(=O)c1ccc(-c2cnc3ncc(Cc4ccc5ncccc5c4)n3n2)cc1F [Capmatinib] | 99.7 | – | –
8 | Cc1cc(Nc2ncc(Cl)c(Nc3ccccc3S(=O)(=O)C(C)C)n2)c(OC(C)C)cc1C1CCNCC1 [Ceritinib] | 96.1 | – | –
9 | O=C(c1ccc(F)c(F)c1Nc1ccc(I)cc1F)N1CC(O)([C@@H]2CCCCN2)C1 [Cobimetinib] | 83.3 | – | –
10 | C[C@@H](Oc1cc(-c2cnn(C3CCNCC3)c2)cnc1N)c1c(Cl)ccc(F)c1Cl [Crizotinib] | – | […] | 96.8
11 | CC(C)(C)c1nc(-c2cccc(NS(=O)(=O)c3c(F)cccc3F)c2F)c(-c2ccnc(N)n2)s1 [Dabrafenib] | 72.1 | – | –
12 | COC(=O)N[C@@H](C)CNc1nccc(-c2cn(C(C)C)nc2-c2cc(Cl)cc(NS(C)(=O)=O)c2F)n1 [Encorafenib] | 66.1 | – | –
13 | C#Cc1cccc(Nc2ncnc3cc(OCCOC)c(OCCOC)cc23)c1 [Erlotinib] | – | […] | 87
15 | CS(=O)(=O)CCNCc1ccc(-c2ccc3ncnc(Nc4ccc(OCc5cccc(F)c5)c(Cl)c4)c3c2)o1 [Lapatinib] | – | > 10 | 38.7
16 | C[C@H]1Oc2cc(cnc2N)-c2c(nn(C)c2C#N)CN(C)C(=O)c2ccc(F)cc21 [Lorlatinib] | 61.8 | – | –

Row | SMILES | inhibition at 10 µM (MATE1 [1]; [3]) [%] | IC50 (MATE1 [2]) [µM] | inhibition at 10 µM (MATE1 [1]; pH 7.4) [%]
17 | CO[C@@H]1[C@H](N(C)C(=O)c2ccccc2)C[C@H]2O[C@]1(C)n1c3ccccc3c3c4c(c5c6ccccc6n2c5c31)C(=O)NC4 [Midostaurin] | 50 | – | –
18 | CCOc1cc2ncc(C#N)c(Nc3ccc(OCc4ccccn4)c(Cl)c3)c2cc1NC(=O)/C=C/CN(C)C [Neratinib] | 90.9 | – | –
19 | C=CC(=O)Nc1cc(Nc2nccc(-c3cn(C)c4ccccc34)n2)c(OC)cc1N(C)CCN(C)C [Osimertinib] | 94.1 | – | –
20 | Cc1ccc(Nc2nccc(N(C)c3ccc4c(C)n(C)nc4c3)n2)cc1S(N)(=O)=O [Pazopanib] | 90.2 | < 0.47 | –
21 | FC(F)(F)c1ccc(CNc2ccc(Cc3c[nH]c4ncc(Cl)cc34)cn2)cn1 [Pexidartinib] | 75.6 | – | –
22 | Cc1ccc(C(=O)Nc2ccc(CN3CCN(C)CC3)c(C(F)(F)F)c2)cc1C#Cc1cnc2cccnn12 [Ponatinib] | – | < 10 | 84.9
23 | Cc1cn(-c2cc(NC(=O)c3ccc(C)c(Nc4nccc(-c5cnccn5)n4)c3)cc(C(F)(F)F)c2)cn1 [Radotinib] | 73 | – | –
24 | CCn1c(=O)c(-c2cc(NC(=O)Nc3ccccc3)c(F)cc2Br)cc2cnc(NC)cc21 [Ripretinib] | 51.9 | – | –
25 | N#CC[C@H](C1CCCC1)n1cc(-c2ncnc3[nH]ccc23)cn1 [Ruxolitinib] | 63 | < 10 | –
26 | COc1ccc(CN2C3CC2CN(c2ccc(-c4cc(OCC(C)(C)O)cn5ncc(C#N)c45)cn2)C3)cn1 [Selpercatinib] | 97.4 | 0.66 | –
27 | COc1cc2nccc(Oc3ccc(NC(=O)Nc4cc(C)on4)c(Cl)c3)c2cc1OC [Tivozanib] | 90.3 | – | –
28 | C[C@@H]1CCN(C(=O)CC#N)C[C@@H]1N(C)c1ncnc2[nH]ccc12 [Tofacitinib] | 90.4 | ~10 | –
29 | CC(=O)Nc1cccc(-n2c(=O)n(C3CC3)c(=O)c3c(Nc4ccc(I)cc4F)n(C)c(=O)c(C)c32)c1 [Trametinib] | 96.1 | 0.06 | –
30 | Cc1cc(Nc2ncnc3ccc(NC4=NC(C)(C)CO4)cc23)ccc1Oc1ccn2ncnc2c1 [Tucatinib] | 96.3 | – | –
31 | CC[C@@H]1CN(C(=O)NCC(F)(F)F)C[C@@H]1c1cnc2cnc3[nH]ccc3n12 [Upadacitinib] | 77.2 | – | –
32 | CCCS(=O)(=O)Nc1ccc(F)c(C(=O)c2c[nH]c3ncc(-c4ccc(Cl)cc4)cc23)c1F [Vemurafenib] | 34.1 | – | –

Second part, led by results:

Row | inhibition at 10 µM (MATE1 [1]; [3]) [%] | SMILES | IC50 (MATE1 [2]) [µM] | inhibition at 10 µM (MATE1 [1]; pH 7.4) [%]
33 | 89.6 | CN(C)C/C=C/C(=O)Nc1cc2c(Nc3ccc(F)c(Cl)c3)ncnc2cc1O[C@H]1CCOC1 [Afatinib] | < 10 | –
34 | 0 | CCc1cc2c(cc1N1CCC(N3CCOCC3)CC1)C(C)(C)c1[nH]c3cc(C#N)ccc3c1C2=O [Alectinib] | – | –
35 | 78.6 | Cn1cc(-c2cc3c(N4CCN(c5ncc([C@@](C)(N)c6ccc(F)cc6)cn5)CC4)ncnn3c2)cn1 [Avapritinib] | – | –
36 | 91.6 | COc1cc2ncnc(Nc3ccc(F)c(Cl)c3)c2cc1NC(=O)/C=C/CN1CCCCC1 [Dacomitinib] | – | –
37 | 99.6 | CN1CCN(c2ccc(C(=O)Nc3n[nH]c4ccc(Cc5cc(F)cc(F)c5)cc34)c(NC3CCOCC3)c2)CC1 [Entrectinib] | – | –
38 | 98.6 | Cc1cnc(Nc2ccc(OCCN3CCCC3)cc2)nc1Nc1cccc(S(=O)(=O)NC(C)(C)C)c1 [Fedratinib] | – | –
39 | 40.2 | COc1cc(Nc2ncc(F)c(Nc3ccc4c(n3)N(COP(=O)(O)O)C(=O)C(C)(C)O4)n2)cc(OC)c1OC [Fostamatinib] | – | –
40 | 91.8 | COc1cc2ncnc(Nc3ccc(F)c(Cl)c3)c2cc1OCCCN1CCOCC1 [Gefitinib] | – | –
41 | 96.7 | CCc1nc(C(N)=O)c(Nc2ccc(N3CCC(N4CCN(C)CC4)CC3)c(OC)c2)nc1NC1CCOCC1 [Gilteritinib] | – | –
42 | 21.1 | O=C(Nc1cnn2ccc(N3CCC[C@@H]3c3cc(F)ccc3F)nc12)N1CC[C@H](O)C1 [Larotrectinib] | – | –
43 | 87.7 | COc1cc2nccc(Oc3ccc(NC(=O)NC4CC4)c(Cl)c3)c2cc1C(N)=O [Lenvatinib] | – | –
44 | 95.3 | COC(=O)c1ccc2c(c1)NC(=O)/C2=C(\Nc1ccc(N(C)C(=O)CN2CCN(C)CC2)cc1)c1ccccc1 [Nintedanib] | – | –
45 | 97.7 | C=CC(=O)Nc1cccc(Oc2nc(Nc3ccc(N4CCN(C)CC4)cc3)nc3ccsc23)c1 [Olmutinib] | – | –
46 | 80.1 | CCN1C(=O)N(c2c(F)c(OC)cc(OC)c2F)Cc2cnc3[nH]c(CN4CCOCC4)cc3c21 [Pemigatinib] | – | –
47 | 94.5 | CO[C@]1(C(=O)N[C@@H](C)c2ccc(-n3cc(F)cn3)nc2)CC[C@H](c2nc(C)cc(Nc3cc(C)[nH]n3)n2)CC1 [Pralsetinib] | – | –
48 | 99.5 | COc1cc2c(Nc3ccc(Br)cc3F)ncnc2cc1OCC1CCN(C)CC1 [Vandetanib] | < 10 | –
49 | 94.5 | C=CC(=O)N1CCC([C@@H]2CCNc3c(C(N)=O)c(-c4ccc(Oc5ccccc5)cc4)nn32)CC1 [Zanubrutinib] | – | –
